Laboratory results: patent publication US10023614B2, “Oral peptide inhibitors of interleukin-23 receptor and their use to treat inflammatory bowel diseases” (Protagonist Therapeutics, Inc., priority 2014, dated 2018)

Test system: Sprague Dawley rats, DSS-induced colitis
Test: Rat colitis model: 9 days of 3% DSS-containing drinking water
Assay type: in vivo
Conditions: 100 mg/kg PO, QD; compared to DSS alone, from Day 5
Description: In this model, colitis was induced in SD rats by 9 days of ad lib exposure to drinking water containing 3% DSS. The disease activity index (DAI) score and ratio of colon weight:colon length were compared between three study groups (n=6 rats/group): vehicle, 3% DSS, and 3% DSS with positive control (sulfasalazine administered at 100 mg/kg PO, QD).
Acute colitis was induced by feeding female Sprague Dawley rats with 3% (wt/vol) DSS dissolved in drinking water. […] A neutralizing anti-IL-23p19 antibody was used as a comparator, and was administered intraperitoneally at 4 mg/kg on the same day and fifth day after starting DSS. To quantify colitis with clinical activity, disease activity index (DAI) was determined daily for each animal as an average of three parameters: body weight change (scale 0-3), stool consistency (scale 0-3) and hemoccult blood (scale 0-3), as shown in Table 15. At necropsy, the entire colon was removed from the cecum to the rectum. The colon was measured for length, flushed with PBS to remove feces, weighed, and opened longitudinally to determine macroscopic score.
Statistical analysis for significance was compared to the vehicle treated group and was determined using Student's T-test (GraphPad Prism). Differences were noted as significant *p<0.05, **p<0.01, ***p<0.001, ****p<0.0001.

O=C(O)c1cc(/N=N/c2ccc(S(=O)(=O)Nc3ccccn3)cc2)ccc1O [sulfasalazine]
disease activity index (DAI) score: attenuated the disease score
